Literature values in patent US7329673B2, “Acylated spiropiperidine derivatives as melanocortin-4 receptor agonists” (Merck & Co., Inc., priority 2003, dated 2008).

How the values were obtained:
[1] = tested on: men with erectile dysfunction; conditions: for duration of effect / onset of action: after an oral dose; for share of men/patients in whom effective (adequate response): oral
[2] = tested on: males with psychogenic erectile dysfunction
[3] = in vivo, po

Row | Molecule | duration of effect [1] | onset of action [1] [min] | share of men/patients in whom effective (adequate response) [1] | duration of action ([2]; in vivo) | time to onset of erection ([2]; in vivo) [min] | response rate ([2]; injected intramuscularly or subcutaneously) [%] | absorption into the systemic circulation [3]
1 | Cc1ccc(N(CC2=NCCN2)c2cccc(O)c2)cc1 [phentolamine] | 2 h | 5 to 30 | 35-40% | – | – | – | –
2 | CCCc1nn(C)c2c(=O)[nH]c(-c3cc(S(=O)(=O)N4CCN(C)CC4)ccc3OCC)nc12 [sildenafil] | about 4 hours | 30 to 60 | about 70% | – | – | – | –
3 | Ac-Nle-c[Asp-His-DPhe-Arg-Trp-Lys]-NH2 [MT-II] | – | – | – | approximately 2.5 hours | 10 to 20 | 75 | not absorbed into the systemic circulation
